Laboratory results taken from patent US12180207B2 (ARRAY BIOPHARMA INC., priority 2018, dated 2024).

Legend:
[1] = molecular target: HEK-293 cells transfected with dox-inducible human wild type FGFR1 (Homo sapiens (Human), UniProt P11362); test: FGFR1 pERK cell assay; format: cell-based; conditions: HEK-293 dox-inducible FGFR1, 1 hour compound, 100 ng/ml FGF-acidic; maximum concentration 5 μM
In short: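 In HEK-293 cells with dox-induced human wild-type FGFR1, compounds (1:3 dilutions, top 5 μM final) were applied 1 h at 37°C before 5 min stimulation with 100 ng/ml FGF-acidic. Phospho-ERK1/2 measured by MSD sandwich immunoassay; IC50 from 4-parameter fit of POC versus vehicle and control compound.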

[2] = molecular target: FGFR3 (SEQ ID NO: 5, amino acids 449-759) (Homo sapiens (Human), UniProt P22607); test: LC/MS FGFR3 kobs assay (covalent protein modification); format: binding; conditions: 500 nM FGFR3, 3 μM compound
In short: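 Intact-mass LC/MS tracks covalent labeling of the kinase domain over time after acid quench (0.4% formic acid). Unmodified fraction, scaled to DMSO controls, is fitted as exponential decay; kobs is reported, averaged when measured more than once.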

[3] = molecular target: dephosphorylated FGFR1 (SEQ ID NO: 1, amino acids 458 to 765) (Homo sapiens (Human), UniProt P11362); test: FGFR enzyme binding assay (HTRF tracer displacement), FGFR1; conditions: 5 nM dephosphorylated FGFR1, average of multiple determinations if made
In short: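 Compounds were tested for displacement of a tracer from human FGFR kinase in a time-resolved FRET binding format. After 60 minutes at 22° C, signal was read at two wavelengths and converted to percent of control, normalised between untreated wells and 1 μM reference inhibitor.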

[4] = molecular target: recombinant human FGFR1 catalytic domain (amino acids 308-731) (Homo sapiens (Human), UniProt P11362); test: FGFR1 enzyme activity assay (LanthaScreen TR-FRET); format: biochemical; conditions: 20 min incubation at 22° C., average of multiple determinations if made, read-out: FGFR1 Enz FRET IC50
In short: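 His-tagged FGFR1 kinase domain with 100 nM Alexa Fluor 647-poly-GT peptide and ATP in pH 7.5 HEPES/MgCl2 buffer with 2% DMSO, 20 min at 22 °C. Quenched with EDTA plus 2 nM Eu-PY20 antibody and read after 60 min. IC50 comes from a 4-parameter fit of percent of control.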

[5] = molecular target: recombinant human FGFR2 cytoplasmic domain (amino acids 403-822) (Homo sapiens (Human), UniProt P21802); test: FGFR2 enzyme activity assay (LanthaScreen TR-FRET); format: biochemical; conditions: 15 μM ATP, 20 min incubation at 22° C., average of multiple determinations if made, read-out: FGFR2 Enz FRET IC50
In short: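 His-tagged FGFR2 cytoplasmic domain ([…]) with 100 nM Alexa Fluor 647-poly-GT peptide and 15 μM ATP in HEPES/MgCl2/Triton buffer, pH 7.5, 2% DMSO, 20 min at 22 °C. EDTA-quenched, Eu-PY20 antibody added, TR-FRET read after 60 min.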

recombinant human FGFR1 catalytic domain (amino acids 308-731), sequence (P11362 other isoform, or with tags, fused parts or gaps): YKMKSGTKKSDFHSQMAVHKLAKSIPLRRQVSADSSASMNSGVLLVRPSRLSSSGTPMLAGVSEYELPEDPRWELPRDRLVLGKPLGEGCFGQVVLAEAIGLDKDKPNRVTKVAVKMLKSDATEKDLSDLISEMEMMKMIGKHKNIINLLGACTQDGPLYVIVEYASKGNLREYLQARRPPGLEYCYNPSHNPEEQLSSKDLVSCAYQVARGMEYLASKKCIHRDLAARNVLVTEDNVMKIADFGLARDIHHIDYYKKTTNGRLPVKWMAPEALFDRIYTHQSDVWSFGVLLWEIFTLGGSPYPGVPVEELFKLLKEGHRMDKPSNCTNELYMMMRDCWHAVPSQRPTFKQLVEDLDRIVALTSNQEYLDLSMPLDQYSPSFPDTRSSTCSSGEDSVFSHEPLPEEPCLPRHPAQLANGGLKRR
HEK-293 cells transfected with dox-inducible human wild type FGFR1, sequence (P11362 22-822): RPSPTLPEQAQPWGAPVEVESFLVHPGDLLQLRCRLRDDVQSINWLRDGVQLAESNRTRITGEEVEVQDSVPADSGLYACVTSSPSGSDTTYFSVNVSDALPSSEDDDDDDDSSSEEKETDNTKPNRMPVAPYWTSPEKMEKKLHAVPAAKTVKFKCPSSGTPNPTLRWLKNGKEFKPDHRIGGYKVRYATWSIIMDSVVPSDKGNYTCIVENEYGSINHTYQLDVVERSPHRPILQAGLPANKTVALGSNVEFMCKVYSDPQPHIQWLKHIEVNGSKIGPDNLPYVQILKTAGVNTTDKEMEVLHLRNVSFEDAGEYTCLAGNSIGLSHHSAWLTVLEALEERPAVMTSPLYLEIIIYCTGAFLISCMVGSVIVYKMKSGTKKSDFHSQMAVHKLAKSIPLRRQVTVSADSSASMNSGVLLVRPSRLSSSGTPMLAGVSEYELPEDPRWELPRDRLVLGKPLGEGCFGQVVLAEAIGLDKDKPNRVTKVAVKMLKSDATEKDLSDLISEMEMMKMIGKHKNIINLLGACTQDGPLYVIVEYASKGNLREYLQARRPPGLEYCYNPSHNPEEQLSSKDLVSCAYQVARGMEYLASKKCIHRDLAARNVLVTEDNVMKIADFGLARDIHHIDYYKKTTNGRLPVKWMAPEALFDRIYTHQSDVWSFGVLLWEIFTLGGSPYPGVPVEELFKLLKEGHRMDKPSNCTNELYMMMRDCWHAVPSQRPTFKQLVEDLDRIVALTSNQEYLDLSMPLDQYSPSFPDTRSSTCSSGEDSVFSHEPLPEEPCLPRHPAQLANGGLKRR
dephosphorylated FGFR1 (SEQ ID NO: 1, amino acids 458 to 765), sequence (P11362 458-765): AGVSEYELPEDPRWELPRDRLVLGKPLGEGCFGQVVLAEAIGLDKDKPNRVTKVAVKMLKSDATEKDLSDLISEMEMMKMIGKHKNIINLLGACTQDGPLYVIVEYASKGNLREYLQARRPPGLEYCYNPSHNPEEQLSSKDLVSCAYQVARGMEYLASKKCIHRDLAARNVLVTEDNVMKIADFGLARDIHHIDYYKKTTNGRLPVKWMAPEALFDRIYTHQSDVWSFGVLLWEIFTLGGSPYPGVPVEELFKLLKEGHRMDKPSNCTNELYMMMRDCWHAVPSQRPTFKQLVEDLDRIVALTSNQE
FGFR3 (SEQ ID NO: 5, amino acids 449-759), sequence (P22607 449-759): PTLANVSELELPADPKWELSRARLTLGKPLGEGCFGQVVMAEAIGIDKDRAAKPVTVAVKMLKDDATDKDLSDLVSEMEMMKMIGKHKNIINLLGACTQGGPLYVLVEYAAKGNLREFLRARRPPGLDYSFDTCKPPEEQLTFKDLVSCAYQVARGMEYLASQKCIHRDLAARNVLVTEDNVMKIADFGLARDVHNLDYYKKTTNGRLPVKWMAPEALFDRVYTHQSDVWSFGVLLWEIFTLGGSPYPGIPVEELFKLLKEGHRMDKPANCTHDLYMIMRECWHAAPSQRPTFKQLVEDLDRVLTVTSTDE
recombinant human FGFR2 cytoplasmic domain (amino acids 403-822), sequence (P21802 402-821): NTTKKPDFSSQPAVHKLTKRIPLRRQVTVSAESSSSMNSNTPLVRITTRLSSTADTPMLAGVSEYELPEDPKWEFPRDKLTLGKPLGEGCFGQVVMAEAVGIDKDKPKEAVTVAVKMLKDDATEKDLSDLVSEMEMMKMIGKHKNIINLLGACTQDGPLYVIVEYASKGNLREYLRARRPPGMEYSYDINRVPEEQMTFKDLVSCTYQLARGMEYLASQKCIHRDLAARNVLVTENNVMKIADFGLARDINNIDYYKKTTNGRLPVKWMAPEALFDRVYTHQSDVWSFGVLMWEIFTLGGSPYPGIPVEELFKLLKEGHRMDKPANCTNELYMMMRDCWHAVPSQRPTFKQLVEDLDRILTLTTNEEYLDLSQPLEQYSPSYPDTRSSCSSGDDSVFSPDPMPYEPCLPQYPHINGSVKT

| Structure (SMILES) | IC50 [1] [nM] | FGFR3 Enz kobs [2] [min⁻¹] | IC50 [3] [nM] | IC50 [4] [nM] | IC50 [5] [nM] |
| --- | --- | --- | --- | --- | --- |
| COc1cc(-c2cnn(C3CCN(C(=O)C4CN(C(=O)/C=C/CN(C)C)C4)CC3)c2C)cn2ncc(C#N)c12 [Example 152, (E)-6-(1-(1-(1-(4-(dimethylamino)but-2-enoyl)azetidine-3-carbonyl)piperidin-4-yl)-5-methyl-1H-pyrazol-4-yl)-4-methoxypyrazolo [1,5-a]pyridine-3-carbonitrile] | ≥ 5000 | 0.03526 | 320 | 99 | 35 |
| COc1cc(-c2cnn(C3CCN(C(=O)C4(C)CN(C(=O)/C=C/CN(C)C)C4)CC3)c2C)cn2ncc(C#N)c12 [Example 157, (E)-6-(1-(1-(1-(4-(dimethylamino)but-2-enoyl)-3-methylazetidine-3-carbonyl)piperidin-4-yl)-5-methyl-1H-pyrazol-4-yl)-4-methoxypyrazolo [1,5-a]pyridine-3-carbonitrile] | ≥ 5000 | 0.03267 | 274 | 90 | 30 |
| C=CC(=O)N1CC(O)(C(=O)N2CCC(n3ncc(-c4cc(OC)c5c(Cl)cnn5c4)c3C)CC2)C1 [Example 172, 1-(3-(4-(4-(3-chloro-4-methoxypyrazolo [1,5-a]pyridin-6-yl)-5-methyl-1H-pyrazol-1-yl)piperidine-1-carbonyl)-3-hydroxyazetidin-1-yl)prop-2-en-1-one] | 3290 | 0.02599 | 922 | 856 | 454 |
| COc1cc(-c2cnn(C3CCN(C(=O)C4CN(C(=O)/C=C/CN5CC[C@@H](F)C5)C4)CC3)c2)cn2ncc(C#N)c12 [Example 183, (R,E)-6-(1-(1-(1-(4-(3-fluoropyrrolidin-1-yl)but-2-enoyl)azetidine-3-carbonyl)piperidin-4-yl)-1H-pyrazol-4-yl)-4-methoxypyrazolo[1,5-a]pyridine-3-carbonitrile] | 4570 | 0.02414 | 46 | 16 | 4 |
| COc1cc(-c2nnn(C3CCN(C(=O)C4(F)CN(C(=O)/C=C/CN(C)C)C4)CC3)c2C)cn2ncc(C#N)c12 [Example 164, (E)-6-(1-(1-(1-(4-(dimethylamino)but-2-enoyl)-3-fluoroazetidine-3-carbonyl)piperidin-4-yl)-5-methyl-1H-1,2,3-triazol-4-yl)-4-methoxypyrazolo [1,5-a]pyridine-3-carbonitrile] | ≥ 5000 | 0.1705 | 350 | 102 | 15 |
| CCc1c(-c2cc(OC)c3c(C#N)cnn3c2)cnn1C1CCN(C(=O)C2(F)CN(C(=O)/C=C/CN(C)C)C2)CC1 [Example 162, (E)-6-(1-(1-(1-(4-(dimethylamino)but-2-enoyl)-3-fluoroazetidine-3-carbonyl)piperidin-4-yl)-5-ethyl-1H-pyrazol-4-yl)-4-methoxypyrazolo [1,5-a]pyridine-3-carbonitrile] | 1440 | 0.07862 | 1720 | 311 | 69 |
| C=CC(=O)N1CC(CN2CCC(n3ncc(-c4cc(OC)c5c(C#N)cnn5c4)c3C)CC2)C1(C)C (centres unmarked) [Example 151, 6-(1-(1-((1-acryloyl-2,2-dimethylazetidin-3-yl)methyl)piperidin-4-yl)-5-methyl-1H-pyrazol-4-yl)-4-methoxypyrazolo [1,5-a]pyridine-3-carbonitrile] | 1960 | 0.0082 | 171 | 86 | 9 |

Compounds with a lower IC50 [1], results first:

| IC50 [1] [nM] | FGFR3 Enz kobs [2] [min⁻¹] | IC50 [3] [nM] | IC50 [4] [nM] | IC50 [5] [nM] | Structure (SMILES) |
| --- | --- | --- | --- | --- | --- |
| 737 | 0.0605 | 144 | 70 | 7 | COc1cc(-c2cnn(C3CCN(CC4(OC)CN(C(=O)/C=C/CN(C)C)C4)CC3)c2C)cn2ncc(C#N)c12 [Example 159, (E)-6-(1-(1-((1-(4-(dimethylamino)but-2-enoyl)-3-methoxyazetidin-3-yl)methyl)piperidin-4-yl)-5-methyl-1H-pyrazol-4-yl)-4-methoxypyrazolo [1,5-a]pyridine-3-carbonitrile] |
| 496 | 0.01542 | 51 | 12 | 2 | COc1cc(-c2cnn(C3CCN(CC4CN(C(=O)/C=C/CN(C)C)C4)CC3)c2)cn2ncc(C#N)c12 [Example 146, (E)-6-(1-(1-((1-(4-(dimethylamino)but-2-enoyl)azetidin-3-yl)methyl)piperidin-4-yl)-1H-pyrazol-4-yl)-4-methoxypyrazolo [1,5-a]pyridine-3-carbonitrile] |
| 674 | 0.02502 | 455 | 551 | 239 | C=CC(=O)N1CC(CN2CCC(n3ncc(-c4cc(OC)c5c(Cl)cnn5c4)c3C)CC2)C1 [Example 118, 1-(3-((4-(4-(3-chloro-4-methoxypyrazolo[1,5-a]pyridin-6-yl)-5-methyl-1H-pyrazol-1-yl)piperidin-1-yl)methyl)azetidin-1-yl)prop-2-en-1-one] |
| 342 | 0.02201 | 35 | 20 | 4 | C=CC(=O)N1CCN(C(=O)N2CCC(n3cc(-c4cc(OC)c5c(C#N)cnn5c4)cn3)CC2)C[C@@H]1CC#N [Example 135, (S)-6-(1-(1-(4-acryloyl-3-(cyanomethyl)piperazine-1-carbonyl)piperidin-4-yl)-1H-pyrazol-4-yl)-4-methoxypyrazolo[1,5-a]pyridine-3-carbonitrile] |
| 1200 | 0.03885 | 814 | 789 | 359 | C=CC(=O)N1CC(OC)(C(=O)N2CCC(n3ncc(-c4cc(OC)c5c(Cl)cnn5c4)c3C)CC2)C1 [Example 117, 1-(3-(4-(4-(3-chloro-4-methoxypyrazolo[1,5-a]pyridin-6-yl)-5-methyl-1H-pyrazol-1-yl)piperidine-1-carbonyl)-3-methoxyazetidin-1-yl)prop-2-en-1-one] |
| 1110 | 0.03006 | 72 | 63 | 20 | C=CC(=O)N1CC(C(=O)N2CC3(C2)CN(c2ccc(-c4cc(OC)c5c(C#N)cnn5c4)cn2)C3)C1 [Example 104, 6-(6-(6-(1-acryloylazetidine-3-carbonyl)-2,6-diazaspiro[3.3]heptan-2-yl)pyridin-3-yl)-4-methoxypyrazolo[1,5-a]pyridine-3-carbonitrile] |
| 492 | 0.01396 | 120 | 28 | 12 | C=CC(=O)N1CC(C(=O)N2CCC(n3cc(-c4cc(OC)c5c(Cl)cnn5c4)cn3)CC2)C1 [Example 122, 1-(3-(4-(4-(3-chloro-4-methoxypyrazolo[1,5-a]pyridin-6-yl)-1H-pyrazol-1-yl)piperidine-1-carbonyl)azetidin-1-yl)prop-2-en-1-one] |
| 915 | 0.1388 | 488 | 903 | 239 | COc1cc(-c2cnn(C3CCN(C(=O)C4(F)CN(C(=O)/C=C/CN(C)C)C4)CC3)c2C)cn2ncc(Cl)c12 [Example 170, (E)-1-(3-(4-(4-(3-chloro-4-methoxypyrazolo [1,5-a]pyridin-6-yl)-5-methyl-1H-pyrazol-1-yl)piperidine-1-carbonyl)-3-fluoroazetidin-1-yl)-4-(dimethylamino)but-2-en-1-one] |
| 35 | 0.08793 | 14 | 5 | 8 | C=CS(=O)(=O)N1CCC(C(=O)N2CCC(n3cc(-c4cc(OC)c5c(C#N)cnn5c4)cn3)CC2)CC1 [Example 186, 4-methoxy-6-(1-(1-(1-(vinylsulfonyl)piperi-dine-4-carbonyl)piperidin-4-yl)-1H-pyrazol-4-yl)pyrazolo[1,5-a]pyridine-3-carbonitrile] |
